Results published in US5439940A, “Benz[e]indene derivatives” (priority 1992, dated 1995).
Where two headings read alike, the source gives them in different places.

How the values were obtained:
[1] = system: carrageen-induced paw volume; assay: Antiinflammatory effect (carrageen paw, Winter et al.); assay type: in vivo, rat (Wistar); conditions: po, read-out: Antiinflammatory effect ID30
Experimental: The antiinflammatory effect was investigated on Wistar rats weighing 150-180 g according to the method of Winter et al. 0.1 ml of a 1 percent carrageen suspension was injected subcutaneously into the plantar region of one of the hind paws. The animals were fasted for 12 hours and received drinking water ad libitum. One hour before treatment with the test compound the rats were hydrated orally with 30 ml/kg of tap water. The test compounds and the vehicle were administered p.o. in a volume of 10 ml/kg, then 1 hour later carrageen was applied. The volume of the treated paw was measured by mercury-plethysmometer before and 3 hours after injection in such a way that displacement of the liquid arising from the volume alteration was indicated on a millimeter scale. […] A., Risley, E. A., Nuss, G. W.: Proc. Soc.

[2] = system: acetic acid writhing reactions; assay: Analgesic effect (acetic acid writhing, Newbould); assay type: in vivo, mouse (NMRI); conditions: Mus musculus, 1 h, read-out: Analgesic effect ID50
Experimental: The characteristic "writhing reactions" were counted for a period of 5 minutes, starting from the fifth minute after challenge. […] Each group of animals consisted of at least 10 mice. […]

pentetrazole spasm = assay: Anticonvulsive activity: pentetrazole spasm inhibiting test; assay type: in vivo, mouse (NMRI); conditions: Mus musculus; mice, oral, 1 hour before pentetrazole 125 mg/kg i.p.; read-out: Inhibition of pentetrazole spasm, ED50
Experimental: The pentetrazole spasm inhibiting test was performed according to the modified method of Benziger and Hans. Groups of mice consisting of 6 animals each, belonging to the NMRI strain (body weight: 20-25 g), were treated orally with the compound to be tested and the vehicle without active agent, respectively. I hour after the treatment a dosage of 125 mg/kg of pentetrazole was administered to each animal, intraperitoneally, and the tonic spasm of the lower limb extensor was recorded [Benziger, R., Hans, D.: Arch. Int. Pharmacodyn., 167, 245 (1967)].
(§1) The ED50 values were determined according to the method of Litchfield and Wilcoxon.

nicotine spasm = assay: Anticonvulsive activity: inhibition of nicotine spasm and lethality; assay type: in vivo; conditions: Mus musculus, 1 h; mice, oral, one hour before nicotine 1.4 mg/kg i.v.
Experimental: The inhibition of nicotine spasm and lethality was examined on mice according to the method of Stone. One hour after the oral treatment a dosage of 1.4 mg/kg of nicotine is injected intravenously, and the spasm developed as well as the lethality within 1 hour were recorded at both the test and control groups. [Stone, C. C., Mecklenburg, K. L., Torchiana, M. L.: Arch. Int. Pharmacodyn., 117, 419 (1958)].
as §1

[3] = Acute toxicity on mice (oral LD50); conditions: mouse, in vivo, 7 days observation, maximal dose 1000 mg/kg
Experimental: Mice belonging to the NMRI strain (body weight 20-25 g, both male and female) were used, 6 to 10 animals for each dose. The test compound was administered orally in a volume of 20 ml/kg. The applied maximal dose was 1000 mg/kg. […] The mice were kept in a plastic cage at room temperature. The animals got tap water and standard mouse fodder ad libitum. The toxicity data were determined by the aid of the method of Litchfield and Wilcoxon [Litchfield, J. T., Wilcoxon, F. W.: J. Pharmacol. Exp. Ther., 96, 99 (1949)].

nervus ischiadicus = assay: Local analgesic effect (Truant d'Amato); assay type: in vivo; conditions: 0.2 ml injected around nervus ischiadicus
Experimental: The test was carried out according to the method of Truant d'Amato. 0.2 ml of test material was injected around the nervus ischiadicus in the middle of femur with a needle of 1 cm length. The criterion of analgesic effect was the lack of the motoric control of foot muscles. The duration of effect was registered and the 50 percentile effective concentration (EC50) was calculated on the basis of the dose-effect curve. Lidocain was used as reference substance Truant d'Amato, A. P., Wiedling, S.: Acta Chir. Scand., 116, 351 (1958)].

[4] = system: experimental coronary insufficiency; assay: Antianginal effect (glanduitrine-induced coronary insufficiency, Nieschultz); assay type: in vivo, rat (male); conditions: rat, glanduitrine 4 NE/kg i.v., T-wave; for inhibition in vivo at 2 mg/kg: Rat2, iv, read-out: Inhibition in a dose of 2 mg/kg
Experimental: The test was carried out on male rats weighing 180-220 g. The animals were narcotized with the aid of chloralose-urethane. ECG was registered by means of needle electrodes in standard II output. Antianginal effect was tested according to the method of Nieschultz. Experimental coronary insufficiency was induced by administering glanduitrine (4 NE/kg i.v.).

spontaneous motility = assay: Spontaneous motility inhibiting activity (Dews equipment); assay type: in vivo; conditions: Mus musculus, 0.5 h; oral, beam interruptions within 30 minutes; read-out: Motility inhibiting activity ID50
Experimental: The spontaneous motility inhibiting activity was examined according to the method of Borsy et al. Groups consisting of 3 mice each were treated orally with different doses of the compounds to be tested, then the test animals were placed in a Dews equipment. In this equipment the number of interruptions of infrared beam within 30 minutes was counted. […] [Borsy, J., Csanyi, E., Lazar, I.: Arch. Int.. Pharmacodyn. 124, 1 (1960)].

shocks tolerated = assay: Anxiolytic effect (Vogel et al.); assay type: in vivo, rat (male Wistar)
Experimental: The anxiolytic effect was tested by using the method of Vogel et al. Male Wistar rats of 160-180 g bodyweight were kept free of food and drinking water for 24 and 48 hours, respectively. Test and carrier substances were administered intraperitoneally two hours before testing. Animals within the experimental chamber were provided with drinking water through an inserted tube. After the animals' each twenty lapping for water the device emitted a 2 mA intensity electric shock through the drinking tube. During 5 minutes the shocks tolerated by the animals in order to quench their thirst were counted. The effect of treatment was expressed as the % increase of the tolerated shocks. The minimum effective dose (MED) was determined for each test compound [Voqel, J. R., Beer, B., Clody, D. E.: Psychopharmacologia (Berl.) 21, 1 (1971)].

hexobarbital narcosis = assay: Hexobarbital narcosis potentiating effect on mice; assay type: in vivo, mouse
Experimental: The hexobarbital narcosis potentiating effect was examined on mice. Groups consisting of 6 animals were used for each dose. The animals were treated orally with the test compound, whereby sleeping was induced 1 hour later by administering a 40 mg/kg i.v. dose of hexobarbital both to the test and control groups. […] ED50 values were calculated from the thus-transformed data [Kaergaard Nielsen C. et al., Arch. Int. Pharmacodyn. 2, 170 (1967)].

catalepsy = assay: Catalepsy; assay type: in vivo, rat (Wistar); conditions: rat
Experimental: The extrapyramidal syndrome, the most important side effect limiting the application of the neuroleptic drugs in man, can be produced in experimental animals in the form of catalepsy. Our experiments in 150-160 g Wistar rats were performed according to Morpurgo. The catalepsy, appearing 60 minutes after dosing, was scored as follows. Both forelegs of each animal were put for 10 seconds onto a rubber stopper of 3 cm height, then for additional 10 seconds onto a same stopper of 9 cm height. […] The procedure was repeated in each 30 minutes during four hours, obtaining scores proportional to the degree of the catalepsy. Results were used to calculate the minimum effective dose [MED, the lowest dose resulting statistically significant alteration, c.f.: Morpurgo, C.: Arch. Int.

[5] = system: learned conditioned avoidance reflex; assay: Antipsychotic effect: inhibition of conditioned avoidance reflex (shuttle box); assay type: in vivo, rat (male Wistar)
Experimental: The antipsychotic (neuroleptic) effect was measured by the inhibition of the learned conditioned avoidance reflex. The male Wistar rats used for the study were of 120-150 g bodyweight at the commencement of learning. […] In response to a suitable warning stimulus, in order to avoid the punishing (unconditioned) stimulus, animals within the box passed through the gate from one part over the other. The warning, i.e. conditioned stimulus (CS), a white light (1 Hz) blinking for 15 seconds, was applied at the place of the actual animal existence. The unconditioned stimulus (US), in form of 0.6 mA intensity electric shock, was randomly applied to the paw during the last 5 seconds of the conditioned stimulus. Animal's movement during the CS and US from one part of the box over the other, was defined as avoidance and escape responses, respectively. Both responses ceased the actual stimulus and stopped the trial. The time elapsed until the next trial (intertrial interval, ITI) was 15 seconds. While one experiment was carried out daily, an experiment consisted of 80 trials. Learning efficiency was expressed as percentage of the successful to the total avoidances. […] Dosing was carried out once a week, one hour before the measurement in the shuttle box.

[6] = rat, p.o., 1 hour before carrageen, paw volume 3 hours after
[7] = mice, 0.75% acetic acid one hour after treatment

CC(=O)Oc1ccccc1C(=O)O [Acetylsalicylic acid, reference compound]
ED30 ([1]; Rattus norvegicus, 3 h): 62 mg/kg | ED50 [2]: 261 mg/kg

CCN(CC)CCON=C1CCc2c1ccc1ccccc21 [Example 3, 3-[2-(N,N-Diethylamino)-ethoxyimino]-2,3-dihydro-1H-benz[e]indene]
ED50 (pentetrazole spasm): 96 mg/kg | ED50 (nicotine spasm): 29 mg/kg | LD50 at 168 h [3]: 640 mg/kg

CC(C)N(CCON=C1CCc2c1ccc1ccccc21)C(C)C [Example 4, 3-[2-(N-1-Methylethyl-2-propylamino)-ethoxyimino]-2,3-dihydro-1H-benz[e]indene]
Local analgesic effect EC50 (nervus ischiadicus): 0.18% | inhibition in vivo at 2 mg/kg [4]: 100% | ED50 ([4]; iv): 0.19 mg/kg | ED50 (nicotine spasm): 4 mg/kg | LD50 at 168 h [3]: 600 mg/kg

OC(CNC1CC1)CON=C1CCc2c1ccc1ccccc21 (stereo not shown) [Example 17, 3-[3-(Cyclopropylamino)-2-hydroxypropoxyimino]-2,3-dihydro-1H-benz[e]indene]
ED50 (spontaneous motility): 6 mg/kg | minimal effective dose (shocks tolerated; ip, 2 h, rat, intraperitoneal, two hours before testing, read-out: Anxiolytic effect MED): 0.1 mg/kg | anxiolytic effect compared with Chlordiazepoxide and Meprobamate (in words) (shocks tolerated; rat): superior to the reference substances by orders of magnitude | character in smaller doses (in words) (shocks tolerated; smaller doses): anxiolytic | inhibition in vivo at 2 mg/kg [4]: 50% | ED50 (hexobarbital narcosis; Mus musculus, oral, 1 hour before hexobarbital 40 mg/kg i.v., sleeping time >2.5 times control, read-out: ED50 hexobarbital narcosis potentiation): 11 mg/kg | tranquillo-sedative activity rank (in words) (hexobarbital narcosis; compared within the structural group): the most active member in the structural group | LD50 at 168 h [3]: 660 mg/kg | Therapeutic index (Catalepsy MED / Conditioned Reflex ID50) (catalepsy): 3.8 | Catalepsy MED (catalepsy; scored from 60 minutes after dosing, four hours): 100 mg/kg | ED30 [1, 6]: 40 mg/kg | ED50 [2, 7]: 14 mg/kg | ED50 ([5]; 1 h, rat, dosing one hour before measurement, read-out: Conditioned reflex ID50): 26.3 mg/kg | character when administered in higher doses (in words) ([5]; higher doses): neuroleptic | antipsychotic effect compared with reference substances (in words) ([5]; rat): superior to Thioridazine and inferior to Chlorpromazine

CC(=O)Nc1ccc(O)cc1 [Paracetamol, reference compound]
ED30 [1, 6]: 195 mg/kg | ED50 [2, 7]: 421 mg/kg

OC(CCN1CCCCC1)(c1ccccc1)C1CCCCC1 (stereo not shown) [Trihexyphenidyl, reference compound]
ED50 (nicotine spasm): 20 mg/kg
